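Five compound concentrations were applied to cells in 96-well plates for 48 hours; endpoints were derived by simple linear interpolation of the resulting dose-response curve. TGI: concentration producing complete growth inhibition.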
Experiments:
Test in all cases: growth of human tumour cells (NCI), 48 h
[1] = tested on: HOP-62 NSCLC
[2] = tested on: MCF7 breast
[3] = tested on: HCT-116 colon
[4] = tested on: COLO 205 colon
[5] = tested on: OVCAR-5 ovarian
[6] = tested on: A498 renal
[7] = tested on: MDA-MB-231 breast
[8] = tested on: SNB-75 CNS
[9] = tested on: U251 CNS
[10] = tested on: SR leukemia
[11] = tested on: OVCAR-3 ovarian
[12] = tested on: BT-549 breast
[13] = tested on: SK-MEL-2 melanoma
[14] = tested on: UO-31 renal
[15] = tested on: MOLT-4 leukemia
[16] = tested on: 786-0 renal
[17] = tested on: RPMI-8226 leukemia
[18] = tested on: NCI/ADR-RES ovarian
[19] = tested on: UACC-257 melanoma
[20] = tested on: OVCAR-4 ovarian
[21] = tested on: CCRF-CEM leukemia
[22] = tested on: SF-539 CNS
[23] = tested on: NCI-H522 lung
[24] = tested on: K-562 leukemia
[25] = tested on: ACHN renal
[26] = tested on: HCC-2998 colon
[27] = tested on: NCI-H460 lung
[28] = tested on: SNB-19 CNS
[29] = tested on: NCI-H23 lung
[30] = tested on: IGROV1 ovarian
[31] = tested on: KM12 colon
[32] = tested on: A549 NSCLC
[33] = tested on: HOP-92 NSCLC
[34] = tested on: MDA-MB-435
[35] = tested on: SK-MEL-28 melanoma
[36] = tested on: SN12C renal
[37] = tested on: SW-620 colon
[38] = tested on: RXF 393 renal
[39] = tested on: CAKI-1 renal
[40] = tested on: SK-MEL-5 melanoma
[41] = tested on: SF-295 CNS
[42] = tested on: SF-268 CNS
[43] = tested on: LOX IMVI melanoma
[44] = tested on: NCI-H226 lung
[45] = tested on: EKVX NSCLC
[46] = tested on: HT29 colon
[47] = tested on: T-47D breast
[48] = tested on: UACC-62 melanoma
[49] = tested on: TK-10 renal
[50] = tested on: HS 578T breast
[51] = tested on: DU-145 prostate
[52] = tested on: SK-OV-3 ovarian
[53] = tested on: MALME-3M melanoma
[54] = tested on: HCT-15 colon
[55] = tested on: MDA-N
[56] = tested on: PC-3 prostate
[57] = tested on: M14 melanoma
[58] = tested on: HL-60(TB) leukemia
[59] = tested on: OVCAR-8 ovarian

Measured: TGI

N#Cc1c(O)c(C=Nc2ccc(Cl)cc2)c(=O)n2c1[nH]c1ccccc12
> 100 µM: [1] | [2] | [3] | [4] | [5] | [6] | [7] | [8] | [9] | [10] | [11] | [12] | [13] | [14] | [15] | [16] | [17] | [18] | [19] | [20] | [21] | [22] | [23] | [24] | [25] | [26] | [27] | [28] | [29] | [30] | [31] | [32] | [33] | [34] | [35] | [36] | [37] | [38] | [39] | [40] | [41] | [42] | [43] | [44] | [45] | [46] | [47] | [48] | [49] | [50] | [51] | [52] | [53] | [54] | [55] | [56] | [57] | [58] | [59]
